Results taken from ChEMBL document CHEMBL1201862, “PubChem BioAssay data set” (2004).
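Tested at 5 concentrations; 48 h exposure; 96-well plates; endpoints linearly interpolated, else capped at highest concentration. Abbreviation: GI50, concentration required for 50% inhibition of growth.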 Activity calls are given as the source filed them. Cut-off read from the data, not from the text of the source: active = GI50 up to about 1.1 µM and inactive = higher.

Experiments:
Experiment in all cases: NCI anticancer screen, dose series, 48 h
SK-MEL-5 = system: SK-MEL-5
SR = system: SR
CCRF-CEM = system: CCRF-CEM
K562 = system: K562
COLO 205 = system: COLO 205
BT-549 = system: BT-549
OVCAR-4 = system: OVCAR-4
DU-145 = system: DU-145
CAKI-1 = system: CAKI-1
U-251 = system: U-251
HOP-62 = system: HOP-62
NCI-H522 = system: NCI-H522
SNB-19 = system: SNB-19
A549 = system: A549
ACHN = system: ACHN
UO-31 = system: UO-31
HCT-15 = system: HCT-15
MOLT-4 = system: MOLT-4
TK-10 = system: TK-10
IGROV-1 = system: IGROV-1
LOX IMVI = system: LOX IMVI
HT-29 = system: HT-29
MCF7 = system: MCF7
SF-539 = system: SF-539
NCI-H460 = system: NCI-H460
NCI/ADR-RES = system: NCI/ADR-RES
Hs-578T = system: Hs-578T
HOP-92 = system: HOP-92
SK-OV-3 = system: SK-OV-3
A498 = system: A498
OVCAR-5 = system: OVCAR-5
MDA-MB-231 = system: MDA-MB-231
SN12C = system: SN12C
OVCAR-8 = system: OVCAR-8
HL-60 = system: HL-60
MDA-MB-435 = system: MDA-MB-435
RPMI-8226 = system: RPMI-8226
SK-MEL-2 = system: SK-MEL-2
RXF 393 = system: RXF 393
MDA-N = system: MDA-N
SW-620 = system: SW-620
KM12 = system: KM12
SF-295 = system: SF-295
SK-MEL-28 = system: SK-MEL-28
T47D = system: T47D
786-0 = system: 786-0
SNB-75 = system: SNB-75
HCT-116 = system: HCT-116
EKVX = system: EKVX
NCI-H226 = system: NCI-H226
UACC-257 = system: UACC-257
UACC-62 = system: UACC-62
OVCAR-3 = system: OVCAR-3
PC-3 = system: PC-3
SF-268 = system: SF-268
NCI-H23 = system: NCI-H23
M14 = system: M14
Malme-3M = system: Malme-3M
HCC 2998 = system: HCC 2998

## OCc1cc2c(ccc3sc4ccc5sc6ccc7ncccc7c6c5c4c32)s1
SK-MEL-5
  GI50: 4.08 µM (inactive)
SR
  GI50: 10.5 µM (inactive)
CCRF-CEM
  GI50: 19.7 µM (inactive)
K562
  GI50: 22.4 µM (inactive)
COLO 205
  GI50: 2.72 µM (inactive)
BT-549
  GI50: 14.3 µM (inactive)
OVCAR-4
  GI50: 25.2 µM (inactive)
DU-145
  GI50: 17.1 µM (inactive)
CAKI-1
  GI50: 10.6 µM (inactive)
U-251
  GI50: 28.4 µM (inactive)
HOP-62
  GI50: 12.7 µM (inactive)
NCI-H522
  GI50: 11 µM (inactive)
SNB-19
  GI50: 11.3 µM (inactive)
A549
  GI50: 11.4 µM (inactive)
ACHN
  GI50: 31.6 µM (inactive)
UO-31
  GI50: 2.11 µM (inactive)
HCT-15
  GI50: 10.7 µM
MOLT-4
  GI50: 11.5 µM (inactive)
TK-10
  GI50: 31.8 µM (inactive)
IGROV-1
  GI50: 7.29 µM (inactive)
LOX IMVI
  GI50: 12.6 µM (inactive)
HT-29
  GI50: 15.5 µM (inactive)
MCF7
  GI50: 17.8 µM (inactive)
SF-539
  GI50: 14.4 µM (inactive)
NCI-H460
  GI50: 7.08 µM (inactive)
NCI/ADR-RES
  GI50: 21.7 µM (inactive)
Hs-578T
  GI50: 8.53 µM (inactive)
HOP-92
  GI50: 29.6 µM (inactive)
SK-OV-3
  GI50: 18.4 µM (inactive)
A498
  GI50: 23.5 µM (inactive)
OVCAR-5
  GI50: 15.3 µM (inactive)
MDA-MB-231
  GI50: 4.17 µM (inactive)
SN12C
  GI50: 11 µM (inactive)
OVCAR-8
  GI50: 12.1 µM (inactive)
HL-60
  GI50: 10.1 µM (inactive)
MDA-MB-435
  GI50: 24.3 µM (inactive)
RPMI-8226
  GI50: 13.6 µM (inactive)
SK-MEL-2
  GI50: 14.5 µM (inactive)
RXF 393
  GI50: 11.7 µM (inactive)
MDA-N
  GI50: 10.3 µM (inactive)
SW-620
  GI50: 28.2 µM (inactive)
KM12
  GI50: 6.47 µM (inactive)
SF-295
  GI50: 12.5 µM (inactive)
SK-MEL-28
  GI50: 27.2 µM (inactive)
T47D
  GI50: 8.22 µM (inactive)
786-0
  GI50: 3.55 µM (inactive)
SNB-75
  GI50: 3.89 µM (inactive)
HCT-116
  GI50: 8.47 µM (inactive)
EKVX
  GI50: 12.4 µM (inactive)
NCI-H226
  GI50: 30.1 µM (inactive)
UACC-257
  GI50: 13.6 µM (inactive)
UACC-62
  GI50: 7.45 µM (inactive)
OVCAR-3
  GI50: 16.9 µM (inactive)
PC-3
  GI50: 5.93 µM (inactive)

## Cc1cn2c(/C=C3/C(=O)Nc4cccc(Cl)c43)c(Cl)nc2s1
SR
  GI50: > 100 µM (inactive)
CCRF-CEM
  GI50: 13.5 µM (inactive)
K562
  GI50: > 100 µM (inactive)
BT-549
  GI50: 22.3 µM (inactive)
OVCAR-4
  GI50: > 100 µM (inactive)
DU-145
  GI50: > 100 µM (inactive)
CAKI-1
  GI50: > 100 µM (inactive)
U-251
  GI50: 5.26 µM (inactive)
HOP-62
  GI50: 13.6 µM (inactive)
NCI-H522
  GI50: > 100 µM (inactive)
SNB-19
  GI50: 40.4 µM (inactive)
A549
  GI50: 27 µM (inactive)
SF-268
  GI50: 11.3 µM (inactive)
ACHN
  GI50: 20.6 µM (inactive)
UO-31
  GI50: > 100 µM (inactive)
HCT-15
  GI50: > 100 µM
MOLT-4
  GI50: > 100 µM (inactive)
TK-10
  GI50: 17.9 µM (inactive)
IGROV-1
  GI50: > 100 µM (inactive)
LOX IMVI
  GI50: > 100 µM (inactive)
HT-29
  GI50: > 100 µM (inactive)
MCF7
  GI50: > 100 µM (inactive)
NCI/ADR-RES
  GI50: > 100 µM (inactive)
Hs-578T
  GI50: 4.13 µM (inactive)
HOP-92
  GI50: 34.3 µM (inactive)
SK-OV-3
  GI50: 27.7 µM (inactive)
A498
  GI50: 63.2 µM (inactive)
OVCAR-5
  GI50: > 100 µM (inactive)
NCI-H23
  GI50: 25.8 µM (inactive)
MDA-MB-231
  GI50: 15.3 µM (inactive)
SN12C
  GI50: > 100 µM (inactive)
OVCAR-8
  GI50: > 100 µM (inactive)
HL-60
  GI50: 53.7 µM (inactive)
MDA-MB-435
  GI50: > 100 µM (inactive)
RPMI-8226
  GI50: > 100 µM (inactive)
M14
  GI50: 34.7 µM (inactive)
RXF 393
  GI50: 25.4 µM (inactive)
MDA-N
  GI50: > 100 µM (inactive)
SW-620
  GI50: 3.18 µM (inactive)
KM12
  GI50: > 100 µM (inactive)
SF-295
  GI50: 36.3 µM (inactive)
SK-MEL-28
  GI50: 1.12 µM (inactive)
T47D
  GI50: > 100 µM (inactive)
786-0
  GI50: 18.5 µM (inactive)
Malme-3M
  GI50: > 100 µM (inactive)
SNB-75
  GI50: 14.2 µM (inactive)
HCT-116
  GI50: 60.1 µM (inactive)
HCC 2998
  GI50: 6.34 µM (inactive)
EKVX
  GI50: 55.8 µM (inactive)
UACC-257
  GI50: > 100 µM (inactive)
UACC-62
  GI50: 19.6 µM (inactive)
OVCAR-3
  GI50: 61.9 µM (inactive)
PC-3
  GI50: > 100 µM (inactive)

## Cc1ccc(N2C(N)=C(C#N)C(C#N)(C#N)C2c2ccccc2)cc1 (centres undefined)
SK-MEL-5
  GI50: 8.63 µM (inactive)
SR
  GI50: 8.65 µM (inactive)
CCRF-CEM
  GI50: 3 µM (inactive)
COLO 205
  GI50: 10.2 µM (inactive)
BT-549
  GI50: 10.2 µM (inactive)
OVCAR-4
  GI50: 13.4 µM (inactive)
DU-145
  GI50: 14.9 µM (inactive)
CAKI-1
  GI50: 8.97 µM (inactive)
U-251
  GI50: 17.3 µM (inactive)
HOP-62
  GI50: 19.5 µM (inactive)
NCI-H522
  GI50: 5.42 µM (inactive)
SNB-19
  GI50: 17.5 µM (inactive)
A549
  GI50: 16.6 µM (inactive)
SF-268
  GI50: 24.9 µM (inactive)
ACHN
  GI50: 14.2 µM (inactive)
UO-31
  GI50: 15.8 µM (inactive)
HCT-15
  GI50: 6.71 µM
MOLT-4
  GI50: 2.31 µM (inactive)
TK-10
  GI50: 14.4 µM (inactive)
IGROV-1
  GI50: 6.67 µM (inactive)
LOX IMVI
  GI50: 11.5 µM (inactive)
HT-29
  GI50: 3.97 µM (inactive)
MCF7
  GI50: 4.95 µM (inactive)
SF-539
  GI50: 14.2 µM (inactive)
NCI/ADR-RES
  GI50: 17 µM (inactive)
Hs-578T
  GI50: 21 µM (inactive)
HOP-92
  GI50: 7.78 µM (inactive)
SK-OV-3
  GI50: 16.7 µM (inactive)
A498
  GI50: 17 µM (inactive)
OVCAR-5
  GI50: 15.5 µM (inactive)
NCI-H23
  GI50: 18.1 µM (inactive)
MDA-MB-231
  GI50: 11.5 µM (inactive)
SN12C
  GI50: 14.4 µM (inactive)
OVCAR-8
  GI50: 20 µM (inactive)
HL-60
  GI50: 2.75 µM (inactive)
MDA-MB-435
  GI50: 4.03 µM (inactive)
RPMI-8226
  GI50: 11.4 µM (inactive)
SK-MEL-2
  GI50: 13.6 µM (inactive)
M14
  GI50: 12.3 µM (inactive)
RXF 393
  GI50: 6.64 µM (inactive)
MDA-N
  GI50: 3.08 µM (inactive)
SW-620
  GI50: 4.32 µM (inactive)
KM12
  GI50: 17.2 µM (inactive)
SF-295
  GI50: 18.9 µM (inactive)
SK-MEL-28
  GI50: 10.1 µM (inactive)
T47D
  GI50: 5.74 µM (inactive)
786-0
  GI50: 14.2 µM (inactive)
Malme-3M
  GI50: 11.5 µM (inactive)
SNB-75
  GI50: 13.2 µM (inactive)
HCT-116
  GI50: 3.79 µM (inactive)
HCC 2998
  GI50: 13 µM (inactive)
EKVX
  GI50: 18 µM (inactive)
NCI-H226
  GI50: 19.5 µM (inactive)
UACC-257
  GI50: 15.6 µM (inactive)
UACC-62
  GI50: 11.4 µM (inactive)
OVCAR-3
  GI50: 13.7 µM (inactive)
PC-3
  GI50: 18.8 µM (inactive)
